Source: PubChem BioAssay AID268 (DTP/NCI, 2004)
“And” between values parts separate entries of the source, which are not always exact repeats. Identical values can stand only once.

Test system: CD2F1 mice, P1798 lymphosarcoma sc, tumor weight T/C
Assay: NCI In Vivo Anticancer Drug Screen. Data for tumor model P1798 Lymphosarcoma (subcutaneous) in CD2F1 (CDF1) mice
Settings: endpoint: mean tumor weight, higher = larger tumour
Method: The antitumor activity of compounds was measured in mice bearing transplantable tumors. Survival or tumor size were measured and the results are expressed as the measurement made in the treated group (T) divided by the measurement made in the vehicle treated control group (C). The tumor model used in this assay is P1798 Lymphosarcoma (subcutaneous) in CD2F1 (CDF1) mice

[1] = dose: 50.0 mg/kg/injection, schedule: Q01DX010 (ip), vehicle: saline
[2] = dose: 100.0 mg/kg/injection, schedule: Q01DX010 (ip), vehicle: saline
[3] = dose: 5.0 mg/kg/injection, schedule: Q01DX010 (ip), vehicle: saline
[4] = dose: 10.0 mg/kg/injection, schedule: Q01DX010 (ip), vehicle: saline
[5] = dose: 20.0 mg/kg/injection, schedule: Q01DX010 (ip), vehicle: saline
[6] = dose: 12.5 mg/kg/injection, schedule: Q01DX010 (ip), vehicle: saline
[7] = dose: 25.0 mg/kg/injection, schedule: Q01DX010 (ip), vehicle: saline
[8] = dose: 200.0 mg/kg/injection, schedule: Q01DX010 (ip), vehicle: saline
[9] = dose: 400.0 mg/kg/injection, schedule: Q01DX010 (ip), vehicle: saline
[10] = dose: 12.5 mg/kg/injection, schedule: Q01DX010 (sc), vehicle: steriod suspending solution
[11] = dose: 25.0 mg/kg/injection, schedule: Q01DX010 (sc), vehicle: steriod suspending solution
[12] = dose: 50.0 mg/kg/injection, schedule: Q01DX010 (sc), vehicle: steriod suspending solution
[13] = dose: 6.25 mg/kg/injection, schedule: Q01DX010 (sc), vehicle: steriod suspending solution

In the case of CN(C)[C@@H]1C(=O)C(C(N)=O)=C(O)[C@@]2(O)C(=O)C3=C(O)c4c(O)cccc4C[C@H]3C[C@@H]12, the T/C (dose: 15.0 mg/kg/injection, schedule: Q01DX010 (ip), vehicle: saline) was 124 % of control and the T/C (dose: 30.0 mg/kg/injection, schedule: Q01DX010 (ip), vehicle: saline) was 106 % of control.

O=C(CNC(=O)OCc1ccccc1)NCCCCCCNCCCCCCNC(=O)CNC(=O)OCc1ccccc1 was tested, and the T/C [1] was 120 % of control and the T/C [2] was 97 % of control.

COC1=C(N)C(=O)c2nc(-c3nc(C(=O)O)c(C)c(-c4ccc(OC)c(OC)c4O)c3N)ccc2C1=O was tested, and the T/C (dose: 0.06 mg/kg/injection, schedule: Q01DX010 (ip), vehicle: other) was 45 % of control, the T/C (dose: 0.09 mg/kg/injection, schedule: Q01DX010 (ip), vehicle: other) was 48 % of control and the T/C (dose: 0.13 mg/kg/injection, schedule: Q01DX010 (ip), vehicle: other) was 43 % of control. The T/C (dose: 0.2 mg/kg/injection, schedule: Q01DX010 (ip), vehicle: saline) was 28 % of control.

In the case of C[C@@H]1C[C@@H]([C@H](O)CC2CC(=O)NC(=O)C2)C(=O)[C@@H](C)C1, the T/C [3] was 80 % of control and 81 % of control, the T/C [4] was 99 % of control and 103 % of control and the T/C [5] was 63 % of control and 75 % of control. For the same molecule, the T/C (dose: 40.0 mg/kg/injection, schedule: Q01DX010 (ip), vehicle: saline) was 43 % of control and 60 % of control.

Cc1ccc2[nH]c3nc4cc(C)c(C)cc4nc3c2c1 was tested, and the T/C [1] was 93 % of control and the T/C [2] was 76 % of control.

With CCc1c(CC(=O)O)c2cc(C)ccc2n1Cc1ccc(Cl)cc1 the T/C [6] was 120 % of control, the T/C [7] was 87 % of control and the T/C [1] was 54 % of control.

In the case of Nc1c(Br)cc2c(c1Br)Cc1cc([N+](=O)[O-])ccc1-2, the T/C (dose: 31.3 mg/kg/injection, schedule: Q01DX010 (ip), vehicle: saline) was 72 % of control, the T/C (dose: 62.5 mg/kg/injection, schedule: Q01DX010 (ip), vehicle: saline) was 78 % of control and the T/C (dose: 125.0 mg/kg/injection, schedule: Q01DX010 (ip), vehicle: saline) was 61 % of control. The T/C (dose: 250.0 mg/kg/injection, schedule: Q01DX010 (ip), vehicle: saline) was 62 % of control.

With CCCNc1ncnc2[nH]ncc12 the T/C (dose: 6.25 mg/kg/injection, schedule: Q01DX010 (ip), vehicle: saline) was 92 % of control and 95 % of control, the T/C [6] was 72 % of control and the T/C [7] was 25 % of control.

In the case of CN(C)/N=N/c1nc[nH]c1C(N)=O, the T/C [1] was 58 % of control, the T/C [2] was 47 % of control and the T/C [8] was 7 % of control. For the same molecule, the T/C [9] was 3 % of control.

CSc1ncnc2nc[nH]c12 was tested, and the T/C [7] was 100 % of control and 78 % of control, the T/C [1] was 81 % of control and 86 % of control and the T/C [2] was 94 % of control and 70 % of control. The T/C [8] was 61 % of control and 64 % of control.

In the case of CC(=O)NCCSC(=O)C(=O)SCCNC(C)=O, the T/C [7] was 111 % of control, the T/C [1] was 104 % of control and the T/C [2] was 110 % of control.

With C=C1C[C@H]2[C@@H]3C=C(C)C4=CC(=O)CC[C@]4(C)[C@H]3CC[C@]2(C)[C@@]1(OC(C)=O)C(C)=O the T/C [10] was 109 % of control and 116 % of control, the T/C [11] was 84 % of control and the T/C [12] was 120 % of control. The T/C (dose: 125.0 mg/kg/injection, schedule: Q01DX001 (sc), vehicle: steriod suspending solution) was 87 % of control, the T/C (dose: 125.0 mg/kg/injection, schedule: Q01DX010 (sc), vehicle: steriod suspending solution) was 124 % of control and the T/C (dose: 125.0 mg/kg/injection, schedule: Q02DX005 (sc), vehicle: steriod suspending solution) was 117 % of control. The T/C (dose: 250.0 mg/kg/injection, schedule: Q01DX001 (sc), vehicle: steriod suspending solution) was 151 % of control and 160 % of control, the T/C (dose: 250.0 mg/kg/injection, schedule: Q01DX010 (sc), vehicle: steriod suspending solution) was 76 % of control and the T/C (dose: 250.0 mg/kg/injection, schedule: Q02DX005 (sc), vehicle: steriod suspending solution) was 110 % of control. For the same molecule, the T/C (dose: 500.0 mg/kg/injection, schedule: Q01DX001 (sc), vehicle: steriod suspending solution) was 74 % of control and 80 % of control, the T/C (dose: 500.0 mg/kg/injection, schedule: Q01DX010 (sc), vehicle: steriod suspending solution) was 85 % of control and the T/C (dose: 500.0 mg/kg/injection, schedule: Q02DX005 (sc), vehicle: steriod suspending solution) was 96 % of control. For the same molecule, the T/C (dose: 1000.0 mg/kg/injection, schedule: Q01DX001 (sc), vehicle: steriod suspending solution) was 100 % of control and 112 % of control.

In the case of C[C@H]1C[C@@H]2[C@H]([C@@H](O)C[C@@]3(C)[C@H]2CC[C@]3(O)C(=O)CO)[C@@]2(C)C=CC(=O)C=C12, the T/C [12] was 7 % of control.

For C=CCOc1ccc2c(c1)CC[C@@H]1[C@@H]2CC[C@]2(C)[C@@H](O)[C@@H](O)C[C@@H]12, the T/C [13] was 98 % of control and 82 % of control and the T/C [10] was 77 % of control and 88 % of control.

With C[C@]12CC[C@H](O)C[C@@H]1CC[C@@H]1[C@@H]2C(=O)C[C@]2(C)C3=CC(=O)O[C@H]3C[C@@H]12 the T/C (dose: 10.0 mg/kg/injection, schedule: Q01DX010 (sc), vehicle: steriod suspending solution) was 76 % of control and 83 % of control, the T/C (dose: 20.0 mg/kg/injection, schedule: Q01DX010 (sc), vehicle: steriod suspending solution) was 97 % of control and the T/C (dose: 40.0 mg/kg/injection, schedule: Q01DX010 (sc), vehicle: steriod suspending solution) was 87 % of control and 90 % of control. The T/C (dose: 80.0 mg/kg/injection, schedule: Q01DX010 (sc), vehicle: steriod suspending solution) was 78 % of control and 85 % of control.

In the case of CC(=O)OCC(=O)[C@@]1(O)CC[C@H]2[C@@H]3CCC4=CC(=O)[C@H](C)C[C@]4(C)[C@@]3(F)[C@@H](O)C[C@@]21C, the T/C (dose: 3.75 mg/kg/injection, schedule: Q01DX Z (sc), vehicle: steriod suspending solution) was 94 % of control, the T/C [13] was 111 % of control and the T/C (dose: 6.25 mg/kg/injection, schedule: Q02DX010 (sc), vehicle: steriod suspending solution) was 94 % of control. The T/C (dose: 7.5 mg/kg/injection, schedule: Q01DX Z (sc), vehicle: steriod suspending solution) was 111 % of control, the T/C (dose: 12.5 mg/kg/injection, schedule: Q01DX005 (sc), vehicle: steriod suspending solution) was 38 % of control and the T/C (dose: 12.5 mg/kg/injection, schedule: Q02DX010 (sc), vehicle: steriod suspending solution) was 101 % of control. For the same molecule, the T/C (dose: 15.0 mg/kg/injection, schedule: Q01DX Z (sc), vehicle: steriod suspending solution) was 74 % of control, the T/C (dose: 25.0 mg/kg/injection, schedule: Q01DX005 (sc), vehicle: steriod suspending solution) was 5 % of control and the T/C [11] was 1 % of control and 2 % of control and 26 % of control. The T/C (dose: 25.0 mg/kg/injection, schedule: Q02DX010 (sc), vehicle: steriod suspending solution) was 89 % of control, the T/C (dose: 30.0 mg/kg/injection, schedule: Q01DX Z (sc), vehicle: steriod suspending solution) was 74 % of control and the T/C (dose: 50.0 mg/kg/injection, schedule: Q01DX005 (sc), vehicle: steriod suspending solution) was 2 % of control. The T/C (dose: 60.0 mg/kg/injection, schedule: Q01DX Z (sc), vehicle: steriod suspending solution) was 88 % of control and the T/C (dose: 100.0 mg/kg/injection, schedule: Q01DX005 (sc), vehicle: steriod suspending solution) was 1 % of control.

Nc1nc(SCc2ccccc2)c2[nH]cnc2n1 was tested, and the T/C (dose: 16.0 mg/kg/injection, schedule: Q01DX010 (ip), vehicle: saline) was 86 % of control and the T/C (dose: 64.0 mg/kg/injection, schedule: Q01DX010 (ip), vehicle: saline) was 90 % of control.

NCCCC(N)C(=O)NCCCCCCNCCCCCCNC(=O)C(N)CCCN (configuration not stated) was tested, and the T/C [6] was 86 % of control, the T/C [7] was 62 % of control and the T/C [1] was 77 % of control. The T/C [2] was 34 % of control.

In the case of Nc1c(N=Nc2ccc([N+](=O)[O-])cc2)c(S(=O)(=O)O)cc2cc(S(=O)(=O)O)c(N=Nc3ccc(Sc4ccc(N=Nc5ccc(O)cc5)cc4)cc3)c(O)c12 (tested in a mixture with another compound), the T/C [1] was 119 % of control, the T/C [2] was 76 % of control and the T/C [8] was 31 % of control. For the same molecule, the T/C [9] was 20 % of control.

In the case of CO[C@@]12[C@H](COC(N)=O)C3=C(C(=O)C(C)=C(N)C3=O)N1C[C@@H]1N[C@@H]12, the T/C (dose: 0.25 mg/kg/injection, schedule: Q01DX010 (ip), vehicle: saline) was 85 % of control, the T/C (dose: 0.5 mg/kg/injection, schedule: Q01DX010 (ip), vehicle: saline) was 61 % of control and the T/C (dose: 1.0 mg/kg/injection, schedule: Q01DX010 (ip), vehicle: saline) was 36 % of control.

With CC(=O)[C@H]1CC[C@H]2[C@@H]3CCC4=CC(=O)[C@H](C)C[C@]4(C)[C@@]3(F)[C@@H](O)C[C@]12C the T/C [11] was 15 % of control, the T/C [12] was 5 % of control and the T/C (dose: 100.0 mg/kg/injection, schedule: Q01DX010 (sc), vehicle: steriod suspending solution) was 4 % of control. The T/C (dose: 200.0 mg/kg/injection, schedule: Q01DX010 (sc), vehicle: steriod suspending solution) was 6 % of control and the T/C (dose: 400.0 mg/kg/injection, schedule: Q01DX010 (sc), vehicle: steriod suspending solution) was 5 % of control.

With C#C[C@]1(O)CC[C@H]2[C@@H]3CCc4cc(O)ccc4[C@H]3CC[C@@]21C the T/C [11] was 71 % of control and 85 % of control.

With Cn1cnc([N+](=O)[O-])c1Sc1nc(N)nc2nc[nH]c12 the T/C (dose: 2.5 mg/kg/injection, schedule: Q01DX010 (ip), vehicle: saline) was 69 % of control, the T/C [3] was 75 % of control and the T/C [4] was 57 % of control. The T/C [5] was 54 % of control.
